The source of these data is ChEMBL document CHEMBL1909046, “DrugMatrix in vitro pharmacology data”.

Delta-type opioid receptor, sequence (P41143 whole entry): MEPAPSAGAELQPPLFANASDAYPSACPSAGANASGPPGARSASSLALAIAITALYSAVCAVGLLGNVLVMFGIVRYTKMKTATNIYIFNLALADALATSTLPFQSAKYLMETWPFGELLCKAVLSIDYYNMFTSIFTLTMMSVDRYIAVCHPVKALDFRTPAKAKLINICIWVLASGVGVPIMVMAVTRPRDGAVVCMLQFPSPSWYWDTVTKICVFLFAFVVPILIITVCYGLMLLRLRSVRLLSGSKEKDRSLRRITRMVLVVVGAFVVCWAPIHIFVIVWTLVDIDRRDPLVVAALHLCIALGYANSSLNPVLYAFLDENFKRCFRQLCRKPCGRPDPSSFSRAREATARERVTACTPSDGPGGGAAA

In the first series the target is T1, Thromboxane-A synthase (Homo sapiens, UniProt P24557).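 Note: enzyme inhibition assay with PGH2 supplied as substrate; in other assays of this panel Not Active means under 50% inhibition at 10 µM.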
T1 sequence (P24557 whole entry): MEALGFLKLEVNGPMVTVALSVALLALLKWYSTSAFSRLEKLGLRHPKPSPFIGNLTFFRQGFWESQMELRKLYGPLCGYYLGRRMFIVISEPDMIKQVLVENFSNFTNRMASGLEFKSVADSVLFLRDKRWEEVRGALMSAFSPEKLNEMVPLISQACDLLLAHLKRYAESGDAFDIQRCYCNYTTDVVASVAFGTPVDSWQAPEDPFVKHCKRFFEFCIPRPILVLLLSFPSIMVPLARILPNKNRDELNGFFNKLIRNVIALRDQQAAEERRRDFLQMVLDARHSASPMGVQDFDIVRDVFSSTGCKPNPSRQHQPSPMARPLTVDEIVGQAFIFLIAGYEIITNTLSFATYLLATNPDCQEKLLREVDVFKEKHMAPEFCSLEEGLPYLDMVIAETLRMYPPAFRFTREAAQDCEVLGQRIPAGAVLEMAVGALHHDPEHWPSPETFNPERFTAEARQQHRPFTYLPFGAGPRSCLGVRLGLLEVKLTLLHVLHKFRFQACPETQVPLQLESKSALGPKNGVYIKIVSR
Nature of the series: biochemical. The class given is tissue-based, Platelet. The conditions noted are these: platelet.
`CCCCC1C(=O)N(c2ccccc2)N(c2ccccc2)C1=O` [PHENYLBUTAZONE]: the IC50 entry is “Not Active”.
As for `Cc1cccc(Nc2cc(Cl)nc(SCC(=O)O)n2)c1C` [PIRINIXIC ACID], the IC50 result is recorded as “Not Active”.
Still for that read-out and setting: under `CC[C@H](C)C(=O)O[C@H]1C[C@H](O)C=C2C=C[C@H](C)[C@H](CC[C@@H](O)C[C@@H](O)CC(=O)O)[C@H]21` [PRAVASTATIN] stands “Not Active”; under `CC(C)(Sc1cc(C(C)(C)C)c(O)c(C(C)(C)C)c1)Sc1cc(C(C)(C)C)c(O)c(C(C)(C)C)c1` [PROBUCOL], “Not Active”.
Regarding COBALT(II) ACETYLACETONATE, the IC50 result was “Not Active” and the Ki result is given as “Not Active”.
Regarding INSULIN HUMAN, the IC50 entry is on record as “Not Active” and the Ki entry was “Not Active”.
In the case of POLYVINYL ALCOHOL, the IC50 entry is “Not Active” and the Ki result is “Not Active”.

Test system in the next series: not listed separately
Nature of the series: DRUGMATRIX: Leukotriene, BLT (LTB4) radioligand binding (ligand: [3H]LTB4). Format: cell membranes, Membrane. The conditions noted are these: u-937; Not Active = under 50% inhibition at 10 µM.
In the case of `CCCCC1C(=O)N(c2ccccc2)N(c2ccccc2)C1=O` [PHENYLBUTAZONE], the IC50 entry was “Not Active” and the Ki entry is reported as “Not Active”.
`Cc1cccc(Nc2cc(Cl)nc(SCC(=O)O)n2)c1C` [PIRINIXIC ACID]: the IC50 result is “Not Active” and the Ki entry was “Not Active”.
In the case of `CC[C@H](C)C(=O)O[C@H]1C[C@H](O)C=C2C=C[C@H](C)[C@H](CC[C@@H](O)C[C@@H](O)CC(=O)O)[C@H]21` [PRAVASTATIN], the IC50 entry is on record as “Not Active” and the Ki result was “Not Active”.
As to `CC(C)(Sc1cc(C(C)(C)C)c(O)c(C(C)(C)C)c1)Sc1cc(C(C)(C)C)c(O)c(C(C)(C)C)c1` [PROBUCOL], the IC50 result is on record as “Not Active” and the Ki result is reported as “Not Active”.
In the case of COBALT(II) ACETYLACETONATE, the IC50 entry is “Not Active” and the Ki entry is recorded as “Not Active”.
INSULIN HUMAN: the IC50 entry is given as “Not Active” and the Ki result is on record as “Not Active”.
Take POLYVINYL ALCOHOL: the IC50 entry is on record as “Not Active” and the Ki result is listed as “Not Active”.

The target in the next series is T2, Leukotriene C4 synthase (Cavia porcellus, UniProt A6XA80).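 Note: enzyme inhibition assay of leukotriene C4 synthase, using LTA4 as the substrate; in other assays of this panel Not Active means under 50% inhibition at 10 µM.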
T2 sequence (A6XA80 whole entry): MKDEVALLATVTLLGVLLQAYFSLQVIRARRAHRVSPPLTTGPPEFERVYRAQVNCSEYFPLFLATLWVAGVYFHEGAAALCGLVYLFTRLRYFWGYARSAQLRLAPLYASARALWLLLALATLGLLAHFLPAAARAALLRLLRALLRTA
Test: not given
The class given is tissue-based, Lung.
Details: not given
Turning to `CCCCC1C(=O)N(c2ccccc2)N(c2ccccc2)C1=O` [PHENYLBUTAZONE], the IC50 entry was “Not Active”.
On the same count and under the same terms, the value for `Cc1cccc(Nc2cc(Cl)nc(SCC(=O)O)n2)c1C` [PIRINIXIC ACID] was “Not Active”.
Regarding `CC[C@H](C)C(=O)O[C@H]1C[C@H](O)C=C2C=C[C@H](C)[C@H](CC[C@@H](O)C[C@@H](O)CC(=O)O)[C@H]21` [PRAVASTATIN], the IC50 result was “Not Active”.
On the same count and under the same terms, under `CC(C)(Sc1cc(C(C)(C)C)c(O)c(C(C)(C)C)c1)Sc1cc(C(C)(C)C)c(O)c(C(C)(C)C)c1` [PROBUCOL] stands “Not Active”.
For the compound COBALT(II) ACETYLACETONATE, the IC50 result is listed as “Not Active” and the Ki result was “Not Active”.
For the compound INSULIN HUMAN, the IC50 result is “Not Active” and the Ki entry is on record as “Not Active”.
On to POLYVINYL ALCOHOL, for which the IC50 entry is on record as “Not Active” and the Ki result is listed as “Not Active”.

The target of the next series is T3, Muscarinic acetylcholine receptor M4 (Homo sapiens, UniProt P08173). Note: in other assays of this panel Not Active means under 50% inhibition at 10 µM.
T3 sequence (P08173 whole entry): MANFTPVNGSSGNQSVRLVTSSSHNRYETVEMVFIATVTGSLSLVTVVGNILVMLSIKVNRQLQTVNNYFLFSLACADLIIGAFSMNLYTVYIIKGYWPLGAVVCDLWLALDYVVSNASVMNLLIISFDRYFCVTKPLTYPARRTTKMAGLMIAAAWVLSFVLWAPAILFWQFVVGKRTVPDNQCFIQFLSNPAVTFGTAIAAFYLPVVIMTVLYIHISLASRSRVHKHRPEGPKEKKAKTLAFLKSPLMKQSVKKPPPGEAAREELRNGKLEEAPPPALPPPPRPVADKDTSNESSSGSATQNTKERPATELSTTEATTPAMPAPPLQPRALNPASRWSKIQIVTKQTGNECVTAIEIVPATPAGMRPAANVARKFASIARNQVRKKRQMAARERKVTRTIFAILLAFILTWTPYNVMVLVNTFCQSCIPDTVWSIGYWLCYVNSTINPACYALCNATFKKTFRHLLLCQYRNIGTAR
Test: not given
The class given is cell membranes, CHO-K1, Membrane. The settings on record: cho-k1.
Regarding `CCCCC1C(=O)N(c2ccccc2)N(c2ccccc2)C1=O` [PHENYLBUTAZONE], the IC50 result was “Not Active”.
With `Cc1cccc(Nc2cc(Cl)nc(SCC(=O)O)n2)c1C` [PIRINIXIC ACID], the IC50 entry is “Not Active”.
On the same count and under the same terms, under `CC[C@H](C)C(=O)O[C@H]1C[C@H](O)C=C2C=C[C@H](C)[C@H](CC[C@@H](O)C[C@@H](O)CC(=O)O)[C@H]21` [PRAVASTATIN] stands “Not Active”.
With `CC(C)(Sc1cc(C(C)(C)C)c(O)c(C(C)(C)C)c1)Sc1cc(C(C)(C)C)c(O)c(C(C)(C)C)c1` [PROBUCOL], the IC50 result was “Not Active”.
For the compound COBALT(II) ACETYLACETONATE, the IC50 result was “Not Active” and the Ki entry is “Not Active”.
For INSULIN HUMAN, the IC50 entry was “Not Active” and the Ki result is recorded as “Not Active”.
With POLYVINYL ALCOHOL, the IC50 entry was “Not Active” and the Ki entry is listed as “Not Active”.

The next series concerns the target Delta-type opioid receptor (Homo sapiens, UniProt P41143). Note: in other assays of this panel Not Active means under 50% inhibition at 10 µM.
Test: not given
The settings on record: hek293. Format: cell membranes, HEK293, Membrane.
As for `CCCCC1C(=O)N(c2ccccc2)N(c2ccccc2)C1=O` [PHENYLBUTAZONE], the IC50 entry is on record as “Not Active”.
With `Cc1cccc(Nc2cc(Cl)nc(SCC(=O)O)n2)c1C` [PIRINIXIC ACID], the IC50 entry is on record as “Not Active”.
Still for that read-out and setting: the value for `CC[C@H](C)C(=O)O[C@H]1C[C@H](O)C=C2C=C[C@H](C)[C@H](CC[C@@H](O)C[C@@H](O)CC(=O)O)[C@H]21` [PRAVASTATIN] was “Not Active”; that for `CC(C)(Sc1cc(C(C)(C)C)c(O)c(C(C)(C)C)c1)Sc1cc(C(C)(C)C)c(O)c(C(C)(C)C)c1` [PROBUCOL] was “Not Active”.
Regarding COBALT(II) ACETYLACETONATE, the IC50 result is given as “Not Active” and the Ki result is given as “Not Active”.
Regarding INSULIN HUMAN, the IC50 result is “Not Active” and the Ki result is on record as “Not Active”.
Consider POLYVINYL ALCOHOL, for which the IC50 result is reported as “Not Active” and the Ki entry was “Not Active”.

The target in another series is Mitogen-activated protein kinase 14 (Homo sapiens, UniProt Q16539).
Mitogen-activated protein kinase 14, sequence (Q16539 whole entry): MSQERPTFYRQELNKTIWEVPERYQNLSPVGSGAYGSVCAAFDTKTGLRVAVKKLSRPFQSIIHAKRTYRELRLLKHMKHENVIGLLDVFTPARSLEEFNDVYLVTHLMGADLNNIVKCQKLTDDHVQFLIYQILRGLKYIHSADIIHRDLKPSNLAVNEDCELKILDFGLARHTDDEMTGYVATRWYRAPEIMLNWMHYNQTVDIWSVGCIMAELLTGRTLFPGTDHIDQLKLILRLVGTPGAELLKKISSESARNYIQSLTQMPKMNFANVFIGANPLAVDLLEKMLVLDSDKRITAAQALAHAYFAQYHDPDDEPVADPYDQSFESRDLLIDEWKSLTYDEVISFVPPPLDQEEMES
Test: not given
Also on record: species or system Escherichia coli.
Details: not given
As for `CCCCC1C(=O)N(c2ccccc2)N(c2ccccc2)C1=O` [PHENYLBUTAZONE], the IC50 result was “Not Active”.
Still for that read-out and setting: under `Cc1cccc(Nc2cc(Cl)nc(SCC(=O)O)n2)c1C` [PIRINIXIC ACID] stands “Not Active”.
On to `CC[C@H](C)C(=O)O[C@H]1C[C@H](O)C=C2C=C[C@H](C)[C@H](CC[C@@H](O)C[C@@H](O)CC(=O)O)[C@H]21` [PRAVASTATIN], for which the IC50 entry is “Not Active”.
The same measure, in the same setting: the value for `CC(C)(Sc1cc(C(C)(C)C)c(O)c(C(C)(C)C)c1)Sc1cc(C(C)(C)C)c(O)c(C(C)(C)C)c1` [PROBUCOL] was “Not Active”.
On to COBALT(II) ACETYLACETONATE, for which the IC50 entry is reported as “Not Active” and the Ki result is given as “Not Active”.
As to INSULIN HUMAN, the IC50 result was “Not Active” and the Ki entry is “Not Active”.
For the compound POLYVINYL ALCOHOL, the IC50 entry is “Not Active” and the Ki result is on record as “Not Active”.

A further series concerns the target Epidermal growth factor receptor (Homo sapiens, UniProt P00533). Nature of the series: DRUGMATRIX: Protein Tyrosine Kinase, EGF Receptor enzyme inhibition (substrate: Poly(Glu:Tyr)). The class given is cell-based, Insect cells. The settings on record: insect cells; Not Active = under 50% inhibition at 10 µM.
Take `CCCCC1C(=O)N(c2ccccc2)N(c2ccccc2)C1=O` [PHENYLBUTAZONE]: the IC50 result is on record as “Not Active”.
Still for that read-out and setting: under `Cc1cccc(Nc2cc(Cl)nc(SCC(=O)O)n2)c1C` [PIRINIXIC ACID] stands “Not Active”.
Still for that read-out and setting: the value for `CC[C@H](C)C(=O)O[C@H]1C[C@H](O)C=C2C=C[C@H](C)[C@H](CC[C@@H](O)C[C@@H](O)CC(=O)O)[C@H]21` [PRAVASTATIN] was “Not Active”.
The same measure, in the same setting: the value for `CC(C)(Sc1cc(C(C)(C)C)c(O)c(C(C)(C)C)c1)Sc1cc(C(C)(C)C)c(O)c(C(C)(C)C)c1` [PROBUCOL] was “Not Active”.
COBALT(II) ACETYLACETONATE: the IC50 result is recorded as “Not Active” and the Ki result was “Not Active”.
Consider INSULIN HUMAN, for which the IC50 entry is recorded as “Not Active” and the Ki result is “Not Active”.
In the case of POLYVINYL ALCOHOL, the IC50 result was “Not Active” and the Ki entry is “Not Active”.

The target of another series is Cytochrome P450 2C9 (Homo sapiens, UniProt P11712). Note: in other assays of this panel Not Active means under 50% inhibition at 10 µM.
Cytochrome P450 2C9, sequence (P11712 whole entry): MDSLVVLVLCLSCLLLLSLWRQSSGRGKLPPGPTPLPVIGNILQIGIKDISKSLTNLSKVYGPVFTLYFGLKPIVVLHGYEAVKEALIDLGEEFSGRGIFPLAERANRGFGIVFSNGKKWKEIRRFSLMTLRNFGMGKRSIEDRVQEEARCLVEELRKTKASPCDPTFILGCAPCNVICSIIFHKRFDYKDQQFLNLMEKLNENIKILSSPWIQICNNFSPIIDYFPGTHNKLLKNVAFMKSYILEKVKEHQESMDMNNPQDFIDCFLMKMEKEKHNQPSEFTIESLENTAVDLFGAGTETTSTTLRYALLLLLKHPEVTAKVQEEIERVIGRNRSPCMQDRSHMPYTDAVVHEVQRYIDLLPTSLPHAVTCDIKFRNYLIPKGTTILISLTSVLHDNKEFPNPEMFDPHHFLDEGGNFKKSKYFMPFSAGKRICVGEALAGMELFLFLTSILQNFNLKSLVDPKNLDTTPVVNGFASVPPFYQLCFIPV
Test: not given
The conditions noted are these: bti-tn-5b1-4.
`CCCCC1C(=O)N(c2ccccc2)N(c2ccccc2)C1=O` [PHENYLBUTAZONE]: the IC50 entry is on record as “Not Active” and the Ki entry is “Not Active”.
As for `Cc1cccc(Nc2cc(Cl)nc(SCC(=O)O)n2)c1C` [PIRINIXIC ACID], the IC50 result is reported as “Not Active” and the Ki entry was “Not Active”.
Consider `CC[C@H](C)C(=O)O[C@H]1C[C@H](O)C=C2C=C[C@H](C)[C@H](CC[C@@H](O)C[C@@H](O)CC(=O)O)[C@H]21` [PRAVASTATIN], for which the IC50 entry is on record as “Not Active” and the Ki result was “Not Active”.
`CC(C)(Sc1cc(C(C)(C)C)c(O)c(C(C)(C)C)c1)Sc1cc(C(C)(C)C)c(O)c(C(C)(C)C)c1` [PROBUCOL]: the IC50 entry is on record as “Not Active” and the Ki entry is on record as “Not Active”.
For COBALT(II) ACETYLACETONATE, the IC50 result is listed as “Not Active” and the Ki entry is reported as “Not Active”.
On to INSULIN HUMAN, for which the IC50 entry is reported as “Not Active” and the Ki entry was “Not Active”.
Consider POLYVINYL ALCOHOL, for which the IC50 entry is reported as “Not Active” and the Ki result is given as “Not Active”.
